Results: the NIST ThermoML archive (doi:10.1021/je0302001)

Experiment: mn = molality of the nth substance listed, in mol/kg
Details: 101.3 kPa, Liquid; for viscosity: Capillary tube (Ostwald / Ubbelohde) method

O=[N+]([O-])[O-].O=[N+]([O-])[O-].[Zn+2] [nitric acid, zinc salt] + O
Details	mass density [kg/m3]	speed of sound [m/s]	viscosity [mPa·s]
313.15 K, m1 = 0.3388	–	1540.3	–
313.15 K, m1 = 0.6111	–	1548.3	–
313.15 K, m1 = 0.6405	–	1550.9	–
313.15 K, m1 = 1.113	–	1571.8	–
313.15 K, m1 = 1.258	–	1580.9	–
313.15 K, m1 = 1.551	–	1595.3	–
313.15 K, m1 = 1.906	–	1613.8	–
313.15 K, m1 = 2.145	–	1624.5	–
313.15 K, m1 = 2.29	–	1630.2	–
313.15 K, m1 = 2.292	–	1631.4	–
313.15 K, m1 = 2.344	–	1634.6	–
313.15 K, m1 = 2.91	–	1659.9	–
313.15 K, m1 = 3.472	–	1683.4	–
313.15 K, m1 = 4.075	–	1702.8	–
313.15 K, m1 = 4.817	–	1727.1	–
313.15 K, m1 = 5.224	–	1733.1	–
313.15 K, m1 = 5.797	–	1742.3	–
313.15 K, m1 = 6.34	–	1747.6	–
313.15 K, m1 = 6.89	–	1751.5	–
313.15 K, m1 = 7.349	–	1751.7	–
313.3 K, m1 = 2.145	1277.4	–	–
313.55 K, m1 = 0.1329	1011.2	–	–
313.85 K, m1 = 0.6111	1080.1	–	–
313.95 K, m1 = 1.906	1248.8	–	–
313.95 K, m1 = 2.29	1293.8	–	–
314 K, m1 = 5.8	1619.4	–	–
314.1 K, m1 = 0.0875	1004.4	–	–
314.15 K, m1 = 7.764	1746	–	–
314.2 K, m1 = 2.344	1300	–	–
314.25 K, m1 = 0.6405	1084	–	–
314.35 K, m1 = 0.2466	1027.8	–	–
314.35 K, m1 = 7.349	1722	–	–
314.45 K, m1 = 0.3388	1041	–	–
314.6 K, m1 = 2.91	1362	–	–
314.7 K, m1 = 4.817	1542.3	–	–
314.95 K, m1 = 1.551	1204.4	–	–
314.95 K, m1 = 4.075	1477.2	–	–
315.05 K, m1 = 1.113	1147.9	–	–
315.05 K, m1 = 6.89	1692.9	–	–
315.1 K, m1 = 3.472	1419.3	–	–
315.9 K, m1 = 6.34	1655.7	–	–
315.95 K, m1 = 0.1329	1010.2	–	–
315.95 K, m1 = 7.349	1720.2	–	–
316.15 K, m1 = 0.6111	1079	–	–
316.2 K, m1 = 2.292	1292.7	–	–
316.4 K, m1 = 0.6405	1082.8	–	–
316.6 K, m1 = 5.224	1573.5	–	–
316.75 K, m1 = 0.0875	1003.3	–	–
316.8 K, m1 = 0.2466	1026.7	–	–
316.8 K, m1 = 0.3388	1039.9	–	–
316.85 K, m1 = 1.258	1166.1	–	–
316.9 K, m1 = 1.551	1203.1	–	–
317.15 K, m1 = 2.145	1274.9	–	–
317.25 K, m1 = 1.113	1146.8	–	–
317.5 K, m1 = 5.8	1616	–	–
317.6 K, m1 = 7.764	1742.3	–	–
317.65 K, m1 = 7.349	1718.4	–	–
317.8 K, m1 = 2.29	1291.2	–	–
317.9 K, m1 = 1.906	1246.3	–	–
317.9 K, m1 = 2.344	1297.2	–	–
318.15 K, m1 = 0.0875	–	1540.1	–
318.15 K, m1 = 0.1329	–	1539.2	0.632
318.15 K, m1 = 0.2466	–	1542.8	0.655
318.15 K, m1 = 0.3388	–	1544.7	0.676
318.15 K, m1 = 0.6111	–	1555.1	0.738
318.15 K, m1 = 0.6405	–	1557.5	0.745
318.15 K, m1 = 1.113	–	1574.6	0.873
318.15 K, m1 = 1.258	–	1583.5	0.926
318.15 K, m1 = 1.551	–	1597.5	1.014
318.15 K, m1 = 1.906	–	1606.7	1.169
318.15 K, m1 = 2.145	–	1623.3	1.287
318.15 K, m1 = 2.29	–	1629.6	1.35
318.15 K, m1 = 2.292	1291.3	1631.3	–
318.15 K, m1 = 2.344	–	1633.9	1.366
318.15 K, m1 = 2.91	–	1657.1	1.68
318.15 K, m1 = 3.472	–	1678.7	2.088
318.15 K, m1 = 4.075	–	1696.7	2.588
318.15 K, m1 = 4.817	–	1717.9	3.383
318.15 K, m1 = 5.224	–	1724.7	3.857
318.15 K, m1 = 5.797	–	1732	4.807
318.15 K, m1 = 6.34	–	1735.3	5.725
318.15 K, m1 = 6.89	–	1740.7	6.968
318.15 K, m1 = 7.349	–	1740.9	8.113
318.25 K, m1 = 0.6111	1077.9	–	–
318.25 K, m1 = 4.817	1539	–	–
318.3 K, m1 = 2.91	1359.3	–	–
318.45 K, m1 = 6.89	1689.4	–	–
318.6 K, m1 = 0.1329	1009.1	–	–
318.65 K, m1 = 4.075	1474.2	–	–
318.8 K, m1 = 0.6405	1081.7	–	–
318.8 K, m1 = 3.472	1416.3	–	–
318.85 K, m1 = 1.551	1202	–	–
319.05 K, m1 = 0.0875	1002.2	–	–
319.05 K, m1 = 0.3388	1038.8	–	–
319.15 K, m1 = 1.113	1145.7	–	–
319.2 K, m1 = 0.2466	1025.6	–	–
319.3 K, m1 = 6.34	1652.5	–	–
319.3 K, m1 = 7.764	1740.4	–	–
320.05 K, m1 = 5.224	1570.1	–	–
320.5 K, m1 = 0.6111	1076.8	–	–
320.6 K, m1 = 4.075	1472.7	–	–
320.75 K, m1 = 0.1329	1008.1	–	–
320.85 K, m1 = 5.8	1612.8	–	–
321 K, m1 = 1.258	1163.6	–	–
321 K, m1 = 7.349	1714.9	–	–
321.05 K, m1 = 2.145	1272.2	–	–
321.25 K, m1 = 1.113	1144.5	–	–
321.3 K, m1 = 0.0875	1001.2	–	–
321.3 K, m1 = 0.3388	1037.8	–	–
321.35 K, m1 = 0.2466	1024.5	–	–
321.4 K, m1 = 2.29	1288.5	–	–
321.65 K, m1 = 2.344	1294.6	–	–
321.7 K, m1 = 1.906	1243.6	–	–
321.75 K, m1 = 4.817	1535.8	–	–
321.85 K, m1 = 6.89	1685.8	–	–
322.05 K, m1 = 2.292	1288.5	–	–
322.05 K, m1 = 2.91	1356.4	–	–
322.4 K, m1 = 0.6111	1075.8	–	–
322.5 K, m1 = 3.472	1413.3	–	–
322.55 K, m1 = 7.764	1736.9	–	–
322.6 K, m1 = 6.34	1649	–	–
322.75 K, m1 = 1.551	1199.5	–	–
322.95 K, m1 = 0.6405	1079.6	–	–
323.15 K, m1 = 0.0875	–	1545.6	–
323.15 K, m1 = 0.1329	–	1544.6	0.58
323.15 K, m1 = 0.2466	–	1547.7	0.601
323.15 K, m1 = 0.3388	–	1551.5	0.621
323.15 K, m1 = 0.6111	–	1560.9	0.679
323.15 K, m1 = 0.6405	–	1561	0.686
323.15 K, m1 = 1.113	–	1577.8	0.804
323.15 K, m1 = 1.258	–	1585.2	0.853
323.15 K, m1 = 1.551	–	1598.3	0.935
323.15 K, m1 = 1.906	–	1611	1.077
323.15 K, m1 = 2.145	–	1622.9	1.183
323.15 K, m1 = 2.29	–	1630	1.245
323.15 K, m1 = 2.292	–	1631.1	–
323.15 K, m1 = 2.344	–	1628.1	1.254
323.15 K, m1 = 2.91	–	1651.1	1.537
323.15 K, m1 = 3.472	–	1675.6	1.908
323.15 K, m1 = 4.075	–	1690.4	2.349
323.15 K, m1 = 4.817	–	1707.1	3.051
323.15 K, m1 = 5.224	–	1716.7	3.464
323.15 K, m1 = 5.797	–	1723.6	4.283
323.15 K, m1 = 6.34	–	1724.9	5.066
323.15 K, m1 = 6.89	–	1729.5	6.121
323.15 K, m1 = 7.349	–	1729.7	7.071
324.25 K, m1 = 7.764	1734.9	–	–
